A word on the IC50: it is the concentration needed to halve the response being measured.

The values below come from patent US11572341B2, “Biguanide compound and use thereof” (ImmunoMet Therapeutics Inc., priority 2014, dated 2023).

One test has as its system HCT116 cells. The test is described as follows: Inhibitory effect against cancer cell proliferation (MTT). In kind it is cell-based, human. As to conditions: read-out: IC50 (uM) @ HCT116. On the procedure: The formazane crystals thus formed were dissolved using dimethyl sulfoxide (DMSO) and absorbance of the solution was measured at 560 nm. After culturing for 48 hours, […] synthesized in Examples was indicated as cell viability (%) according to each treated concentration.

The test system of a further test is AMPKa [pT172]. The test is described as follows: AMPKa activation [pT172] in MCF7 cell. In kind it is cell-based.
Setting [1] is: Homo sapiens, HCT-116, HCT116, MTT, 48 hours.

Counter-ions that a name gives are not always drawn. Like-named read-outs stand apart in the source and are kept apart here.

Consider `Cl.N=C(N)NC(=N)N(Cc1ccccc1)Cc1ccccc1` [Example 130, N1,N1-dibenzyl Biguanide Hydrochloride], for which the IC50 in the test on HCT116 cells (setting [1]) was greater than 100 µM. In addition, in the test with AMPKa [pT172] (50 uM), the “AMPKa activation [pT172] (Unit/ml) @ MCF7 cell” value (shortened to “AMPKa activation [pT172]”) was determined as 8.8 Unit/ml.
In the case of `COc1ccc(CNC(=N)NC(=N)N)cc1` [Example 131, N1-(4-methoxy)benzyl Biguanide Hydrochloride], in the test with HCT116 cells (Homo sapiens, HCT-116, 48 h), the IC50 was greater than 100 µM. Moreover, the “AMPKa activation [pT172]” value in the test on AMPKa [pT172] (50 uM) turned out to be 17.6 Unit/ml.
`CCCCCCN(CCCCCC)C(=N)NC(=N)N.Cl` [Example 133, N1,N1-dihexyl Biguanide Hydrochloride]: the IC50 in the test with HCT116 cells (setting [1]) was greater than 100 µM. Further, in the test on AMPKa [pT172] (50 uM), the “AMPKa activation [pT172]” value was found to be 7.1 Unit/ml.
As for `CCCCN(C)C(=N)NC(=N)N.Cl` [Example 134, N1-methyl-N1-butyl Biguanide Hydrochloride], the IC50 in the test on HCT116 cells (setting [1]) was greater than 100 µM. In the test on AMPKa [pT172] (50 uM), the “AMPKa activation [pT172]” value came out at 16.2 Unit/ml.
For `CN(C(=N)NC(=N)N)C1CCCCC1.Cl` [Example 135, N1-methyl-N1-cyclohexyl Biguanide Hydrochloride], in the test with HCT116 cells (setting [1]), the IC50 is greater than 100 µM. Also, the “AMPKa activation [pT172]” value with AMPKa [pT172] (50 uM) was found to be 4.2 Unit/ml.
For the molecule `Cl.N=C(N)NC(=N)N(C1CCCCC1)C1CCCCC1` [Example 136, N1,N1-dicyclohexyl Biguanide Hydrochloride], the IC50 in the test on HCT116 cells (setting [1]) is greater than 100 µM. For the same molecule, the “AMPKa activation [pT172]” value in the test on AMPKa [pT172] (50 uM) was 5.9 Unit/ml.
With `Cl.N=C(N)NC(=N)NCCc1ccc(Cl)cc1` [Example 137, N1-(4-chloro)phenethyl Biguanide Hydrochloride], in the test on HCT116 cells (setting [1]), the 50% inhibitory concentration (IC50) was greater than 100 µM. Further, the results for the “AMPKa activation [pT172]” value in the test on AMPKa [pT172] (5 uM), in the test with AMPKa [pT172] (10 uM) and in the test with AMPKa [pT172] (50 uM) were 4.1 Unit/ml, 7.3 Unit/ml and 11.9 Unit/ml, respectively.
Turning to `Cl.N=C(N)NC(=N)NCCc1ccc(O)cc1` [Example 138, N1-(4-hydroxy)phenethyl Biguanide Hydrochloride], the half-maximal inhibitory concentration (IC50) in the test with HCT116 cells (setting [1]) was greater than 100 µM. Besides, the entries for the “AMPKa activation [pT172]” value in the test with AMPKa [pT172] (5 uM), in the test with AMPKa [pT172] (10 uM) and with AMPKa [pT172] (50 uM) were 3.7 Unit/ml, 3.7 Unit/ml and 4.2 Unit/ml, respectively.
Consider `Cl.N=C(N)NC(=N)N1CCCCCC1` [Example 139, N1-azepane Biguanide Hydrochloride], for which the IC50 in the test with HCT116 cells (setting [1]) was greater than 100 µM. For the same molecule, the “AMPKa activation [pT172]” value in the test with AMPKa [pT172] (5 uM) came out at 5.7 Unit/ml; with AMPKa [pT172] (10 uM) it was 5.8 Unit/ml; with AMPKa [pT172] (50 uM), 10.9 Unit/ml.
For `Cl.N=C(N)NC(=N)NCc1ccc(C(F)(F)F)cc1` [Example 141, N1-(4-trifluoromethyl)benzyl Biguanide Hydrochloride], the IC50 in the test with HCT116 cells (setting [1]) is greater than 100 µM. Moreover, the “AMPKa activation [pT172]” value was found to be 5.6 Unit/ml with AMPKa [pT172] (5 uM), 6.1 Unit/ml with AMPKa [pT172] (10 uM) and 10.3 Unit/ml in the test with AMPKa [pT172] (50 uM).
In the case of `Cl.N=C(N)NC(=N)NCc1ccc(OC(F)(F)F)cc1` [Example 142, N1-(4-trifluoromethoxy)benzyl Biguanide Hydrochloride], the IC50 in the test with HCT116 cells (setting [1]) was 73.6 µM. In addition, the figures for the “AMPKa activation [pT172]” value in the test on AMPKa [pT172] (5 uM), in the test with AMPKa [pT172] (10 uM) and in the test on AMPKa [pT172] (50 uM) were 4.7 Unit/ml, 6.0 Unit/ml and 7.2 Unit/ml, respectively.
For `Cl.N=C(N)NC(=N)NCCc1ccc2c(c1)OCO2` [Example 143, N1-2-(benzo[d][1,3]dioxol-5-yl)ethyl Biguanide Hydrochloride], in the test with HCT116 cells (setting [1]), the IC50 was found to be 124 µM. Moreover, the entries for the “AMPKa activation [pT172]” value in the test on AMPKa [pT172] (5 uM), in the test on AMPKa [pT172] (10 uM) and in the test with AMPKa [pT172] (50 uM) were 5.5 Unit/ml, 5.7 Unit/ml and 7.2 Unit/ml, respectively.
For the molecule `CC1CC(=O)N=C(NC(=N)N2CCCCC2)N1.Cl` (stereo not shown) [Example 154, N-(6-methyl-4-oxo-1,4,5-tetrahydropyrimidin-2-yl)piperidin-1-carboximidamide Hydrochloride], the IC50 in the test on HCT116 cells (setting [1]) was greater than 100 µM. Moreover, the entries for the “AMPKa activation [pT172]” value in the test with AMPKa [pT172] (5 uM), with AMPKa [pT172] (10 uM) and in the test with AMPKa [pT172] (50 uM) were 2.9 Unit/ml, 2.9 Unit/ml and 2.8 Unit/ml, respectively.
Take `CC1CNC(NC(=N)N2CCCCC2)=NC1=O.Cl` (stereo not shown) [Example 155, N-(5-methyl-4-oxo-1,4,5,6-tetrahydropyrimidin-2-yl)piperidin-1-carboximidamide Hydrochloride]: in the test on HCT116 cells (setting [1]), the concentration for half-maximal inhibition (IC50) was greater than 100 µM. For the same molecule, the results for the “AMPKa activation [pT172]” value in the test with AMPKa [pT172] (5 uM), in the test on AMPKa [pT172] (10 uM) and in the test with AMPKa [pT172] (50 uM) were 3.3 Unit/ml, 2.8 Unit/ml and 3.9 Unit/ml, respectively.
Regarding `Cl.N=C(NC1=NC(=O)CCN1)N1CCCCC1` [Example 156, N-(4-oxo-1,4,5,6-tetrahydropyrimidin-2-yl)piperidin-1-carboximidamide Hydrochloride], the concentration for half-maximal inhibition (IC50) in the test with HCT116 cells (setting [1]) was greater than 100 µM. Moreover, the “AMPKa activation [pT172]” value in the test on AMPKa [pT172] (5 uM) amounted to 3.6 Unit/ml; in the test on AMPKa [pT172] (10 uM) it was 2.6 Unit/ml; with AMPKa [pT172] (50 uM) it was 4.9 Unit/ml.
For the molecule “N1-(3,5-dimethyl)piperidin-N5-(4-trifluoromethyl)phenyl Biguanide Hydrochloride [Example 63]”, the half-maximal inhibitory concentration (IC50) with HCT116 cells (HCT116, MTT, 48 hours) amounted to 2.8 µM. Besides, the “AMPKa activation [pT172]” value in the test on AMPKa [pT172] (5 uM) is recorded as 15.1 Unit/ml; in the test on AMPKa [pT172] (10 uM) it was 22.9 Unit/ml; in the test with AMPKa [pT172] (50 uM), “cell death”.
